This note sets out measurements from PubChem BioAssay AID1626 (SRMLSC, 2009).

The assay concerns M. tuberculosis H37Rv growth inhibition. Briefly: M. tuberculosis H37Rv growth inhibitors, H37Rv strain (AID 1626). The settings on record: for IC90: measured here: IC90 against H37Rv; for CC50: measured here: Vero cell cytotoxicity.

Where only a bound is given, the exact number is not on record here.

Turning to `O=C(CC(SCc1ccco1)c1ccc(O)cc1)c1cccs1` (stereo unspecified), the IC50 is 27.4 µM, the IC90 is greater than 100 µM and the half-maximal cytotoxic concentration (CC50) was greater than 40 µM.

With `Cc1ccc(-c2csc3nc[nH]c(=S)c23)cc1C`, the IC50 is 20 µM, the IC90 is greater than 100 µM and the CC50 is 26.1 µM.

For the molecule `Cc1ccccc1-n1ncc2c([N+](=O)[O-])cc([N+](=O)[O-])cc21`, the IC50 is 2.97 µM, the IC90 was found to be 4.48 µM and the CC50 is greater than 40 µM.

For the molecule `CCOC(=O)c1cnc(-n2nc(C)cc2C)nc1NCCc1ccccc1`, the IC50 is 0.688 µM, the IC90 worked out at 1.06 µM and the CC50 is greater than 40 µM.

For `CCCCOC(=O)c1ccc(NC(=O)C(=O)NCc2cccnc2)cc1`, the IC50 was 22.1 µM and the IC90 was greater than 100 µM.

As for `O=C(Cc1cccs1)Nc1cccc(-c2nc3cc4ccccc4cc3[nH]2)c1`, the half-maximal inhibitory concentration (IC50) was 15.5 µM, the IC90 was 24.3 µM and the CC50 was determined as 21 µM.

In the case of `O=C(c1ccccc1)c1c2c(cc3sc4ccccc4[n+]13)-c1cccc3cccc-2c13`, the IC50 was 2.81 µM, the IC90 is 5.22 µM and the CC50 worked out at 23.1 µM.

With `O=C(Nc1ccc(-c2csc(Nc3cccc(C(F)(F)F)c3)n2)cc1)c1cccc(C(F)(F)F)c1`, the IC50 is 0.954 µM, the concentration for an effect of 90% (IC90) was 1.53 µM and the CC50 was determined as 17.6 µM.

In the case of `CSCCC(NC(=O)c1cc([N+](=O)[O-])cc([N+](=O)[O-])c1)c1nc2ccccc2[nH]1` (stereo unspecified), the IC50 is 5.37 µM and the IC90 was 5.96 µM.

As for `CC(C)(C)c1cc(NCc2ccccn2)n2ncc(-c3ccc(Cl)cc3)c2n1`, the IC50 is 0.655 µM, the IC90 came to 6.15 µM and the CC50 is greater than 40 µM.

Turning to `CC(C)(C)C(=O)/C=C/Nc1ccccc1O`, the IC50 is 2.55 µM, the IC90 was 3.93 µM and the CC50 was greater than 40 µM.

On to `Cc1ccc(OCCCc2c(C)n[nH]c2C)cc1`, for which the IC50 was 16.8 µM and the IC90 is greater than 100 µM.

`Cc1cc(=O)oc2cc(Oc3ccc([N+](=O)[O-])cc3C(F)(F)F)ccc12`: the IC50 was 12.2 µM and the IC90 is greater than 100 µM.

Turning to `CCSc1nnc(NC(=O)c2ccccn2)s1`, the IC50 is 0.315 µM, the IC90 stood at 0.466 µM and the CC50 came out at 8.14 µM.

For `Cc1c(Cc2ccccc2)c(NCCCO)n2c(nc3ccccc32)c1C#N`, the IC50 is 2.9 µM and the IC90 was 3.35 µM.

For `COc1cc2c(cc1NCc1ccccn1)oc1ccccc12`, the concentration for half-maximal inhibition (IC50) is 3.09 µM and the IC90 is 21.4 µM.

Take `Cc1ccc(CNCc2cc3c(C(C)(C)C)nn(-c4ccccc4)c3[nH]c2=O)cc1`: the IC50 was 8.33 µM, the concentration for an effect of 90% (IC90) is 11 µM and the CC50 was greater than 40 µM.

Take `CC(C)COC(=O)c1ccc2c(c1O)C(=O)c1ccccc1C2=O`: the IC50 was 2.51 µM, the IC90 was 4.11 µM and the CC50 is 27.8 µM.

As to `CC(=O)CC(=O)Nc1ccc2ccccc2c1`, the IC50 was 13.6 µM and the IC90 is greater than 100 µM.

On to `CCOC(=O)C1=Nc2ccccc2C1=[N+]=[N-]`, for which the IC50 was 0.906 µM, the IC90 is 1.23 µM and the CC50 is 36.7 µM.

Turning to `Nc1ccc(OCc2ccco2)cc1`, the IC50 is 5.19 µM and the IC90 was greater than 100 µM.

Turning to `COc1ccc(OCc2n(CC(=O)OC3CC(C)CCC3C(C)C)c3ccccc3[n+]2C)cc1` (stereo unspecified), the IC50 was 3.34 µM, the 90% effect concentration (IC90) was 5.49 µM and the CC50 turned out to be 26.4 µM.

As to `O=C(Nc1ccccc1Cl)Oc1ccc2ccccc2c1`, the concentration for an effect of 90% (IC90) was greater than 100 µM.

For the molecule `c1ccc(OCCOCCN2CCN(C(c3ccccc3)c3ccccc3)CC2)cc1`, the IC50 is 11.7 µM, the IC90 is 13.5 µM and the CC50 is greater than 40 µM.

The molecule `CCOC(=O)c1ccc(NC(=O)C2C3CCC(C3)C2C(=O)O)cc1` (stereo unspecified) returned an IC90 greater than 100 µM.

As for `O=C(Nc1nnc(-c2ccc(Cl)cc2)o1)c1ccccc1Br`, the IC50 was 1.12 µM, the IC90 is 3.35 µM and the CC50 was greater than 40 µM.

As usually defined, the IC50 is the concentration needed to halve the response being measured. What is called IC90 is the point of the concentration-response curve where the effect stands at 90%. A higher IC90 goes with a need for much substance. Broadly, the CC50 is the concentration at which the toxic effect on the cells reaches its halfway point. A lower CC50 goes with harm at low concentration.
